In US9259450B2, “Use of a fermented soy extract as a prebiotic composition” (MICROBIO CO., LTD., priority 2010, dated 2016):
Values after ≈ are worked out from the molar mass of the structure shown.

How the values were obtained:
[1] = system: L. rhamnosus; assay: simultaneous treatment of antibiotics and fermented soy extract, survival counting; format: cell-based; details: FSE 5% where added, 48 h
Description: (§1) Three Lactobacillus strains, L. rhamnosus BCRC 10940, L. paracasei BCRC 14001, L. delbrueckii BCRC 14008, were purchased from the FIRDI, which were cultured in MRS w/o agar medium (Difco) and stored at 4° C. To activate the bacteria, the cells were inoculated in MRS medium at a concentration of 5% (v/v) and cultured at 37° C. for 24 hours, and then 10^7 cells/ml of each of the three Lactobacillus strains was inoculated in 5 ml of MRS medium with shaking overnight.
(§2) The plates were incubated at 37° C. for 48 h.

[2] = system: L. paracasei; assay: as above; format: cell-based; details: FSE 5% where added, 48 h
Description: as §1, §2

[3] = system: L. delbrueckii; assay: as above; format: cell-based; details: FSE 5% where added, 48 h
Description: as §1, §2

[4] = system: L. delbrueckii; assay: microtitre plate-based growth assay, cell number (Table 3); set-up: species or system L. delbrueckii BCRC 14008
Description: as §1
(§3) Antimicrobial activity of antibiotics against the three Lactobacillus strains was measured by a microtitre plate-based method. […] 10 μl of activated bacterial cultures was added to each well to achieve a concentration of 10^5 cfu/ml per well, and the plates were incubated at 37° C. for 24 h. The growth of the bacteria was measured by absorbance at 600 nm and the survival percentages were determined. Further, the minimal inhibitory concentration (MIC) was determined as the lowest concentration of the antibiotics allowing no visible growth of the bacteria. Data are the averages of a triplicate experiment.
(§4) On the other hand, the fermented soy extract prepared of the invention as in Example 1 was analyzed for its prebiotic activity to support the growth of beneficial bacteria using the microtitre plate-based method as described above. The fermented soy extract of the invention was added at a concentration of 5% into the wells and the plates were incubated at 37° C. for 48 h. The cell number was counted.

[5] = system: L. rhamnosus; assay: as above; set-up: species or system L. rhamnosus BCRC 10940
Description: as §1, §3, §4

[6] = system: Lactobacillus strains (L. rhamnosus BCRC 10940, L. paracasei BCRC 14001, L. delbrueckii BCRC 14008); assay: antimicrobial activity (MIC), microtitre plate-based method; format: cell-based; details: 10^5 cfu/ml, 37° C., 24 h, MRS medium, triplicate; read-out: minimal inhibitory concentration (MIC)
Description: as §1, §3

[7] = system: L. paracasei; assay: microtitre plate-based growth assay, cell number (Table 3); set-up: species or system L. paracasei BCRC 14001
Description: as §1, §3, §4

| MIC [6] | Compound | survival counting L. rhamnosus ([1]; antibiotic 2 μg/ml) | survival counting L. rhamnosus ([1]; antibiotic 5 μg/ml) | survival counting L. paracasei ([2]; antibiotic 2 μg/ml) | survival counting L. paracasei ([2]; antibiotic 5 μg/ml) | survival counting L. delbrueckii ([3]; antibiotic 2 μg/ml) | survival counting L. delbrueckii ([3]; antibiotic 5 μg/ml) | cell number L. delbrueckii ([4]; antibiotic 2 μg) | cell number L. rhamnosus ([5]; antibiotic 2 μg) | cell number L. paracasei ([7]; antibiotic 2 μg) | cell number L. delbrueckii ([4]; antibiotic 1 μg) | cell number L. rhamnosus ([5]; antibiotic 1 μg) | cell number L. paracasei ([7]; antibiotic 1 μg) |
| --- | --- | --- | --- | --- | --- | --- | --- | --- | --- | --- | --- | --- | --- |
| 3.6 µg/mL (≈ 9.85 µM) | CC1(C)S[C@@H]2[C@H](NC(=O)[C@H](N)c3ccc(O)cc3)C(=O)N2[C@H]1C(=O)O [AMO, amoxicillin] | 500 ± 50 | 370 ± 10 | 3000 ± 500 | 4300 ± 445 | 6670 ± 610 | 1170 ± 76 | 5.00 × 10^4 | 3.40 × 10^3 | 2.00 × 10^4 | – | – | – |
| 3.6 µg/mL (≈ 10.3 µM) | CC1(C)S[C@@H]2[C@H](NC(=O)[C@H](N)c3ccccc3)C(=O)N2[C@H]1C(=O)O [AMP, ampicillin] | 967 ± 76 | 230 ± 15 | 3670 ± 350 | 4700 ± 409 | 4330 ± 260 | – | 5.58 × 10^6 | 6.30 × 10^4 | 3.29 × 10^6 | – | – | – |
| 1 µg/mL (≈ 1.34 µM) | CC[C@H]1OC(=O)[C@H](C)[C@@H](O[C@H]2C[C@@](C)(OC)[C@@H](O)[C@H](C)O2)[C@H](C)[C@@H](O[C@@H]2O[C@H](C)C[C@H](N(C)C)[C@H]2O)[C@](C)(OC)C[C@@H](C)C(=O)[C@H](C)[C@@H](O)[C@]1(C)O [CAM, clarithromycin] | – | – | – | – | – | – | – | – | – | 3.45 × 10^5 | 5.10 × 10^4 | 3.27 × 10^5 |
| 1 µg/mL (≈ 1.36 µM) | CC[C@H]1OC(=O)[C@H](C)[C@@H](O[C@H]2C[C@@](C)(OC)[C@@H](O)[C@H](C)O2)[C@H](C)[C@@H](O[C@@H]2O[C@H](C)C[C@H](N(C)C)[C@H]2O)[C@](C)(O)C[C@@H](C)C(=O)[C@H](C)[C@@H](O)[C@]1(C)O [Eryc, erythromycin] | – | – | – | – | – | – | 3.16 × 10^5 | 5.07 × 10^4 | 3.18 × 10^5 | – | – | – |
